Reference: patent US7589177B2, “Nucleic acid molecules encoding cyclotide polypeptides and methods of use” (E.I. du Pont de Nemours & Company, priority 2004, dated 2009)

Columns and labels:
Panagrellus redivivus = assay: Bioactivity of cyclotide 2 against the nematode Panagrellus redivivus (dose-response, % mortality); type: in vivo
Description: Panagrellus was grown in basal medium and diluted in sterile water to create a stock solution concentration of 200 nematodes/50 μL (the basal media inoculum). Using a multi-channel pipette, 50 μL of the nematode stock solution was added to each well of plates containing the fractionated crude extract. Tests were performed on duplicate samples. Once the activity was established, the HPLC peaks corresponding to the active wells were purified and dose-response assays were done.
Samples for a dose-response assay were resuspended in 40 μL and 4 wells of 8 μL, 6 μL, 4 μL and 2 μL were prepared in replicates of two. The volume was adjusted with the basal media inoculum to get a final volume of 50 μL and 200 nematodes per well. […] The percent mortality was calculated as ratio of dead nematodes against the total (living and dead) number present in the test wells.

Caenorhabditis elegans [1] = assay: Nematocidal activity of cyclotide 2 against C. elegans (dose-response, development score); type: in vivo; set-up: key to Replicate 1 Score (nematode development) / Replicate 2 Score (nematode development): 1: no development; 2: little development; 5: medium development; 10: full development; conditions: for Replicate 1 Score (nematode development) / Replicate 2 Score (nematode development): 50 L1-stage nematodes per well
Description: Samples of cyclotide 2 to be used in a dose-response assay were resuspended in 180 μl distilled H2O to create a stock solution of 161.3 μM. The dose-response assay was carried out in 96 well microtiter plates with each dose prepared in replicates of two. Each assay well contained 50 L1-stage nematodes which had been grown in S-medium (100 mM NaCl, 10 mM K citrate, pH 6.0, 50 mM KHPO4, pH 6.0, 3 mM CaCl2, 3 mM MgCl2, […], […], 10 mM MnCl2, 10 mM ZnSO4, 1 mM CuSO4) and had been allowed to feed on overnight cultured E. coli strain OP50, 30 μg/mL tetracycline and 30 μg/mL chloramphenicol. The total assay volume was 100 μL. The assay was scored at days 3 and 4 (Table 3).

[2] = system: Colletotrichum graminaria; assay: Dose-response fungal growth inhibition assay; type: cell-based; conditions: 2500 spores/mL in 1/2 strength PDB, 28° C., scored after 24 and 48 hours
Description: (§1) The anti-fungal activity of cyclotide 2 was tested against the crop pathogens Fusarium verticilloides and Colletotrichum graminaria, and the filamentous fungus Neurospora crassa. To conduct the assay, 100 μL of ½ strength potato dextrose broth (PDB) containing a spore suspension of 2500 spores/mL was added to each well in a 96 well microtiter plate containing dried HPLC fractions. The plates were mixed three times in approximately five minute intervals before incubation at 28° C., and were scored after 24 hours and 48 hours for inhibition of fungal growth. Inhibition of fungal growth was defined as little to no spore germination with no detectable hyphae growth.
(§2) The dose-response fungal assays were performed by resuspending the lyophilized cyclotide protein sample in 200 μL of a solution which consisted of fungal spores suspended in ½ strength potato dextrose broth (PDB) at a concentration of 2500 spores/mL. The spores were either from Fusarium verticilloides, Colletotrichum graminaria or Neurospora crassa. This resuspended sample represented a starting stock solution. A 0.5× dilution series was then prepared by removing 100 μL of the starting stock solution and adding it to a well in a 96 well tray containing 100 μL of spore suspension (2500 spores/mL), mixing thoroughly and then transferring 100 μL of the newly diluted cyclotide/spore suspension to a fresh well containing 100 μL of spore suspension etc., until all 12 columns of the row of sample in the 96 well tray were prepared. The final volume of the assay was then 100 μL. The plates were mixed three times in approximately five minute intervals before they were incubated at 28° C. and then were scored after 24 and 48 hours for inhibition of fungal growth. Inhibition of fungal growth was defined as little to no spore germination with no detectable hyphae growth.

Fusarium verticilloides = assay: Dose-response fungal growth inhibition assay; type: cell-based; conditions: 2500 spores/mL in 1/2 strength PDB, 28° C., scored after 24 and 48 hours
Description: as §1, §2

Neurospora crassa = assay: Dose-response fungal growth inhibition assay; type: cell-based; conditions: 2500 spores/mL in 1/2 strength PDB, 28° C., scored after 24 and 48 hours
Description: as §1, §2

Caenorhabditis elegans [3] = assay: Nematocidal activity of cyclotide 2 against C. elegans (dose-response, development score); type: in vivo; conditions: fractionated crude extract of Viola spp.
Sclerotinia = Sclerotinia hyphal growth inhibition dose-response assay; type: cell-based, Sclerotinia sclerotiorum; set-up: key: 0: no inhibition of fungal growth; 1: slight inhibition; 2: moderate inhibition; 3: extensive inhibition; 4: total inhibition; conditions: 48 hours
Description: To test the activity of cyclotide 2 against Sclerotinia, a Sclerotinia test inoculum was started by inoculating ½ strength PDB liquid with a sterile loop of hyphae from a Sclerotinia culture propagated on a ⅛ strength potato dextrose agar (PDA) plate. This liquid inoculum was held at room temperature (22° C.), without shaking, in the dark for 4 days, to allow sufficient growth of hyphae. The resulting suspension was macerated using a sterile polytron tissue grinder. The sample was then diluted with ½ strength PDB to the point of invisibility to the naked eye (observation under microscopy at 40× indicated the presence of 12-15 hyphal fragments per 50 μL aliquot of inoculum). Then, 50 μL of the inoculum was added to each well of a 96 shallow well bioassay plate.
The cyclotide sample, following fractionation and lyophilization, was resuspended in 100 μL ½ strength PDB, placed on ice and gently shaken. Then, 50 μL of resuspended sample was added to each corresponding well of the bioassay plate to give a final test volume of 100 μL and […] per well. In the inoculum control wells, 50 μL of inoculum and 50 μL of ½ strength PDB were used, while the media control wells contained 100 μL of ½ strength PDB. The wells were covered with Breathe-Easy membranes (Web Scientific Ltd., Cheshire, U.K.) and placed in the dark on the benchtop.
For the dose-response assay, lyophilized cyclotide 2 was resuspended in 40 μL of ½ strength PDB solution. Then, 20 μL of the resuspended sample was pipetted into 4 different wells containing either 8 μL, 6 μL, 4 μL or 2 μL of suspension. The final volume in each well was adjusted to 100 μL with the Sclerotinia test inoculum. The plates were covered with Breathe-Easy membranes (Web Scientific Ltd., Cheshire, U.K.) and placed in the dark on the benchtop.

cyclotide 2: bioactive cyclotide purified from Viola spp. extract; SEQ ID NO:6 GIPCGESCVWIPCISAAIGCSCKSKVCYRN (cyclo(GIPCGESCVWIPCISAAIGCSCKSKVCYRN); not fully specified (bridges); also: three disulfide bonds (cystine knot), pairings not given here; listed as Viola sp.)
Scored at 18 hrs (% mortality) (Panagrellus redivivus; 10.07 μM): 60%
Scored at 24 hrs (% mortality) (Panagrellus redivivus; 10.07 μM): 74%
Scored at 18 hrs (% mortality) (Panagrellus redivivus; 20.13 μM): >60%
Scored at 24 hrs (% mortality) (Panagrellus redivivus; 20.13 μM): 78%
Scored at 18 hrs (% mortality) (Panagrellus redivivus; 30.20 μM): 70%
Scored at 24 hrs (% mortality) (Panagrellus redivivus; 30.20 μM): 80%
Scored at 18 hrs (% mortality) (Panagrellus redivivus; 40.27 μM): 85%
Scored at 24 hrs (% mortality) (Panagrellus redivivus; 40.27 μM): 90%
Scored at 18 hrs (% mortality) (Panagrellus redivivus; 50.34 μM): 85%
Scored at 24 hrs (% mortality) (Panagrellus redivivus; 50.34 μM): 95%
Scored at 18 hrs (% mortality) (Panagrellus redivivus; 60.40 μM): 90%
Scored at 24 hrs (% mortality) (Panagrellus redivivus; 60.40 μM): ~100%
Activity of HPLC peak against Panagrellus redivivus (Panagrellus redivivus; fractionated crude extract of Viola spp.): specifically active
LD90 concentration (concentration at which 90% of the nematodes are killed) (Panagrellus redivivus; within 24 hrs observation time): 40.27 µM
Replicate 1 Score (nematode development) (Caenorhabditis elegans [1]; 0.81 μM): 10
Replicate 2 Score (nematode development) (Caenorhabditis elegans [1]; 0.81 μM): 10
Replicate 1 Score (nematode development) (Caenorhabditis elegans [1]; 1.62 μM): 10
Replicate 2 Score (nematode development) (Caenorhabditis elegans [1]; 1.62 μM): 10
Replicate 1 Score (nematode development) (Caenorhabditis elegans [1]; 3.24 μM): 5
Replicate 2 Score (nematode development) (Caenorhabditis elegans [1]; 3.24 μM): 5
Replicate 1 Score (nematode development) (Caenorhabditis elegans [1]; 6.48 μM): 2
Replicate 2 Score (nematode development) (Caenorhabditis elegans [1]; 6.48 μM): 2
Replicate 1 Score (nematode development) (Caenorhabditis elegans [1]; 16.2 μM): 1
Replicate 2 Score (nematode development) (Caenorhabditis elegans [1]; 16.2 μM): 1
LD90 (Caenorhabditis elegans [1]; recorded after day three): 6.48 µM
Cyclotide concentration at which total inhibition of fungal growth is observed [2]: 2.5 µM
Cyclotide concentration at which total inhibition of fungal growth is observed (Fusarium verticilloides): 10 µM
Cyclotide concentration at which total inhibition of fungal growth is observed (Neurospora crassa): 1.25 µM
Activity of HPLC peak against Caenorhabditis elegans (Caenorhabditis elegans [3]): specifically active
Score (inhibition of hyphal growth) (Sclerotinia; 1.67 μM): 1
Score (inhibition of hyphal growth) (Sclerotinia; 3.33 μM): 2
Score (inhibition of hyphal growth) (Sclerotinia; 5.0 μM): 4
Score (inhibition of hyphal growth) (Sclerotinia; 6.67 μM): 3
